Molecular target: Adenosine receptor A2a (Rattus norvegicus, UniProt P30543)
Sequence (P30543 whole entry): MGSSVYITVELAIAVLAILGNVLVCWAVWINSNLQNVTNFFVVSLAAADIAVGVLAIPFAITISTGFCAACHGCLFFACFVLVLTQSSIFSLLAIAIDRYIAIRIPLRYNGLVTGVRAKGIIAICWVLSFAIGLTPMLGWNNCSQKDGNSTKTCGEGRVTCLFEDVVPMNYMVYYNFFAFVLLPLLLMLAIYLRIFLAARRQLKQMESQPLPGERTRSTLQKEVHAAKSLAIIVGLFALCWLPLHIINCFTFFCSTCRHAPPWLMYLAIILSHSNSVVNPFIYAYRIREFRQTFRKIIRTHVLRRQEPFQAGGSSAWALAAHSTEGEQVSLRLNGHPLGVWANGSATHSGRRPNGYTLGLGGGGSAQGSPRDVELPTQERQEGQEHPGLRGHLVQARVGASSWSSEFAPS

Nc1nc(Nc2ccccc2)nc2c1ncn2[C@@H]1O[C@H](CO)[C@H](O)C1O (stereo partly specified) [(CV 1808) 2-(6-Amino-2-phenylamino-purin-9-yl)-5-hydroxymethyl-tetrahydro-furan-3,4-diol]
Ki: 115 nM

Reference: BindingDB's records for PubMed 2795469 (Ciba-Geigy, 1989)
